Reference: patent US8034812B2, “Imidazopyridazine derivative having kinase inhibitory activity and pharmaceutical agent thereof” (Takeda Pharmaceutical Company Limited, priority 2006, dated 2011)

Target: T1, BRAF (V600E) enzyme (Homo sapiens, UniProt P15056, V600E)
T1 construct: area encoding the BRAF kinase domain region, so that the protein contains an N-terminal Flag; made in house; host or cells: SF-21 insect cells, recombinant baculovirus BAC-V600E
Assay: Determination of BRAF (V600E) kinase inhibitory activity ([γ-32P]ATP, GST-MEK1 (K96R) substrate)
Assay type: biochemical
Conditions: read-out: BRAF (V600E) kinase inhibitory rate
Protocol: Human BRAF gene was cloned by PCR using human Testis cDNA library (Clontech) as a template. The primer used for PCR was prepared from base sequence (Genbank Accession NM_004333) information of BRAF gene by adding a base sequence encoding flag peptide and a recognition sequence of the restriction enzyme to area encoding the BRAF kinase domain region, so that the protein contains an N-terminal Flag. The primer base sequence is shown below.
The PCR reaction was conducted using Pyrobest (Takara Shuzo Co., Ltd). The obtained PCR product was electrophoresed on agarose gel (1%), the DNA fragment amplified by PCR was recovered from the gel, and then digested with restriction enzymes EcoRI and SalI. The DNA treated with the restriction enzymes was electrophoresed on agarose gel (1%), and the obtained DNA fragment was recovered and ligated to plasmid pFASTBAC1 (Invitrogen) digested with restriction enzymes EcoRI and SalI to give expression plasmid pFB-BRAF, and the base sequence of the insert fragment was confirmed. In addition, mutation was introduced into V600E using a Quick change Site Directed Mutagenesis kit (Stratagene). The nucleotide sequences of the primers used are shown in the following.
SF-21 cells were sown at 1×10^6 cells/mL to Sf-900II SFM medium (1 L, Invitrogen) containing 10% fetal bovine serum (Trace), 50 mg/L Gentamicin (Invitrogen) and 0.1% Pluronic F-68 (Invitrogen), and shaking culture was performed using a 2 L volume Erlenmeyer flask at 27° C., 100 rpm. After culturing for 24 hrs, recombinant baculovirus BAC-V600E (13.4 mL) was added to the mixture, and the mixture was further cultured for 3 days. The culture medium was centrifuged at 2,000 rpm for 5 min to give virus-infected cells. The infected cells were washed with a phosphate buffered saline (Invitrogen), centrifuged under the same conditions, and the cells were preserved at −80° C. The cryopreserved cells were thawed in ice, suspended in buffer A (50 mM Tris buffer (30 mL, pH 7.4) containing 20% glycerol, 0.15 M NaCl) supplemented with Complete Protease Inhibitor (Boehringer), and ruptured 3 times with a Polytron homogenizer (Kinematica) at 20,000 rpm for 30 sec. The ruptured medium was clarified by centrifugation at 40,000 rpm for 30 min and filtered with a 0.45 μm filter. The filtrate was passed through a column packed with Anti-FLAG M2 Affinity Gel (4 mL, Sigma) at a flow rate of about 0.5 mL/min. The column was washed with buffer A, and eluted with buffer A containing 100 μg/mL of FLAG peptide. The buffer of this concentrate was exchanged using NAP25 column (Amersham Bioscience) equilibrated with buffer A and the fractions were cryopreserved at −80° C.
A test compound (2.5 μl) dissolved in dimethyl sulfoxide (DMSO) was added to 37.5 μl of a reaction solution (25 mM HEPES (pH 7.5), 10 mM magnesium acetate, 1 mM dithiothreitol) containing BRAF (V600E) enzyme (30 ng) and recombinant type protein GST-MEK1 (K96R) 250 ng, and the mixture was incubated at room temperature for 10 min. ATP solution (10 μl) (2.5 μM ATP, 0.1 μCi [γ-^32P]ATP) was added to the obtained mixture, and the mixture was reacted at room temperature for 20 min. The reaction was quenched by adding 50 μL of ice-cooled 20% trichloroacetic acid (Wako Pure Chemical Industries, Ltd.). The reaction solution was allowed to stand at 4° C. for 30 min, and the acid-precipitable fraction was transferred to GF/C filter plate (Millipore Corporation) using cell harvester (PerkinElmer). The plate was dried at 45° C. for 60 min, and 40 μL of MicroScinti 0 (PerkinElmer) was added thereto. The radioactivity was measured using TopCount (PerkinElmer). The kinase inhibitory rate (%) of the test compound was calculated by the following formula: Inhibitory rate(%)=(1−(count of test compound−blank)÷(control−blank))×100
The count of the solution reacted without addition of the compound was used as a “control”, and the count of the solution without the compound and enzyme was used as a “blank”. […]

T1 sequence (P15056 457-717 V600E limits assumed): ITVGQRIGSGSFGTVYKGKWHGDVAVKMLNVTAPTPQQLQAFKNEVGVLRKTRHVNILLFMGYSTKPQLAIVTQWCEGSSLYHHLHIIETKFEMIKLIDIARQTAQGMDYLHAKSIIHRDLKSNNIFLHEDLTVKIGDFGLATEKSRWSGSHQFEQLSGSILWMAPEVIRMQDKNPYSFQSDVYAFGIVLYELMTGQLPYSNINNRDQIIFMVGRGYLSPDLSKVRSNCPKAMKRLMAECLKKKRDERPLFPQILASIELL

Inhibition at 1 µM, ≥ 90%:
CNc1nccc(Nc2cn3nc(Oc4cccc(NC(=O)c5cccc(C(F)(F)F)c5)c4)ccc3n2)n1 [Example 70, N-{3-[(2-{[2-(methylamino)pyrimidin-4-yl]amino}imidazo[1,2-b]pyridazin-6-yl)oxy]phenyl}-3-(trifluoromethyl)benzamide]
O=C(Nc1cccc(Oc2ccc3nc(NC(=O)C4CC4)cn3n2)c1)c1cccc(C(F)(F)F)c1 [Example 319, N-[3-({2-[(cyclopropylcarbonyl)amino]imidazo[1,2-b]pyridazin-6-yl}oxy)phenyl]-3-(trifluoromethyl)benzamide]
Cc1ccc(Oc2ccc3nc(NC(=O)C4CC4)cn3n2)cc1NC(=O)c1cccc(C(C)(C)C#N)c1 [Example 330, 3-(1-cyano-1-methylethyl)-N-[5-({2-[(cyclopropylcarbonyl)amino]imidazo[1,2-b]pyridazin-6-yl}oxy)-2-methylphenyl]benzamide]
CN(C)CC(=O)Nc1cn2nc(Oc3cccc(NC(=O)c4cccc(C(F)(F)F)c4)c3)ccc2n1 [Example 398, N-[3-({2-[(N,N-dimethylglycyl)amino]imidazo[1,2-b]pyridazin-6-yl}oxy)phenyl]-3-(trifluoromethyl)benzamide]
O=C(Nc1cccc(Sc2ccc3nc(NC(=O)C4CC4)cn3n2)c1)c1cccc(C(F)(F)F)c1 [Example 427, N-[3-({2-[(cyclopropylcarbonyl)amino]imidazo[1,2-b]pyridazin-6-yl}thio)phenyl]-3-(trifluoromethyl)benzamide]
O=C(Nc1cccc(Oc2ccc3nc(NC(=O)C4CC4)cn3n2)c1)Nc1cccc(C(F)(F)F)c1 [Example 431, N-{6-[3-({[3-(trifluoromethyl)phenyl]carbamoyl}amino)phenoxy]imidazo[1,2-b]pyridazin-2-yl}cyclopropanecarboxamide]
